Source: US7241785B2, “Five-membered heterocyclic alkanoic acid derivative” (Takeda Pharmaceutical Company Limited, priority 2001, dated 2007)

Assays:
PPARδ-RXRα heterodimer = target: T1, PPARδ-RXRα heterodimer (Homo sapiens, UniProt Q03181); experiment: PPARδ-RXRα heterodimer ligand activity (luciferase reporter, PPARδ:RXRα:4ERPP/CHO-K1 cells); type: cell-based; design: expressed in transfected cells; conditions: concentration for 50% of maximum fold induction of luciferase, 48 hrs
T1 sequence (Q03181 1-441): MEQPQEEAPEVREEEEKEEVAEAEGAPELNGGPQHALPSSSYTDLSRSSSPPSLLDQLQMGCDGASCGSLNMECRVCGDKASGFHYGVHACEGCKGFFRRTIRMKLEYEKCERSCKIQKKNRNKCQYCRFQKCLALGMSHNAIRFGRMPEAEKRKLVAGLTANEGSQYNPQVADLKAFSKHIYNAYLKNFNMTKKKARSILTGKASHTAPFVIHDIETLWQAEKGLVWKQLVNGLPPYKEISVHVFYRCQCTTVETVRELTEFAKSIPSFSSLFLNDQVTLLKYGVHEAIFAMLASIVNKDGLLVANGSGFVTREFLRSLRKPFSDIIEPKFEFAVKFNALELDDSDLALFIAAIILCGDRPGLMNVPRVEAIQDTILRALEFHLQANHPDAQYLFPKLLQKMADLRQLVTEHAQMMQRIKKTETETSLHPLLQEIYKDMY
T1 sequence (P19793 1-462 partner): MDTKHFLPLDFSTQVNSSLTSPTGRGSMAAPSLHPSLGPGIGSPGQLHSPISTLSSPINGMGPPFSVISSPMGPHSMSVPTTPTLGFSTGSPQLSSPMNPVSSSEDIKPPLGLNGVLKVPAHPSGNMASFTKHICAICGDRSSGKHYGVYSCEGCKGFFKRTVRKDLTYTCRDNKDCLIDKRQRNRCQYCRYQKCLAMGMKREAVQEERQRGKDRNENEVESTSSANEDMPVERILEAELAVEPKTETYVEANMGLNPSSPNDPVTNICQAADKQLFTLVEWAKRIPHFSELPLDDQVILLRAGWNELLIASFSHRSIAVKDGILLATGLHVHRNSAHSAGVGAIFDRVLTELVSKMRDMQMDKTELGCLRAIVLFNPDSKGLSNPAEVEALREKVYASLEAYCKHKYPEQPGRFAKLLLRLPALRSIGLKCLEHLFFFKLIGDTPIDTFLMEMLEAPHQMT
Protocol: PPARδ-RXRα Heterodimer Ligand Activity
PPARδ:RXRα:4ERPP/CHO-K1 cells obtained in Reference Example 5a were cultured in HAM F12 medium (produced by NISSUI SEIYAKU) containing 10% fetal bovine serum (produced by Life Technologies, Inc., USA) and then seeded in a 96-well white plate (produced by Corning Costar Corporation, USA) at the density of 2×10^4 cells/well, and cultured in a CO2 gas incubator at 37° C. overnight.
After washing the 96 well white plate with PBS (Phosphate-buffered saline), 90 μl of HAM F12 medium containing 0.1% fatty acid-free bovine serum albumin (BSA) and 10 μl of test compound were added, and the cells were cultured in a CO2 gas incubator at 37° C. for 48 hrs. After removing the medium, 40 μl of PicaGene 7.5 (produced by Wako Pure Chemical Industries, Ltd.) was added. After stirring, the luciferase activity was determined using Lumistar (produced by BMG Labtechnologies GmbH, Germany).
The fold induction was calculated from the luciferase activity of each test compound when the luciferase activity in the non-treatment group is taken as 1. The values of the test compound concentration and the fold induction were analyzed using PRISM 2.01 (produced by GraphPad Software Inc. USA) to calculate the EC50 values, the effective concentration of a test compound for 50% of the maximum fold induction. […]

- EC50 (PPARδ-RXRα heterodimer): 2100 nM
- melting point: 136 to 137 °C
Structure (SMILES): Cc1oc(-c2ccccc2)nc1COc1ccc(Sc2nc(-c3ccccc3)c(CCC(=O)O)o2)cc1 [Example 10, 3-[2-[4-(5-methyl-2-phenyl-4-oxazolylmethoxy)phenylthio]-4-phenyl-5-oxazolyl]propionic acid]
